Test system: subjects suffering from dysthymic disorders
Test: Clinical trial of acetyl L-carnitine in patients with mood disorders classifiable as dysthymia (rating scales, alcohol intake, libido, safety)
Type: in vivo, human
Conditions: for Hamilton Depression Rating Scale (HDRS): basal 13.9 ± 5.3; for Hamilton Anxiety Rating Scale (HARS): basal 18.6 ± 3.8; for Global Functional (or Social Adaptation) Rating (GFR): basal 63.4 ± 6.6; for alcohol-free days: baseline 6±2
Text: The selection of the patients for this trial consisted in a selection by exclusion, in which the medical history criterion was of paramount importance, with exclusion of all patients presenting episodes of major depression and cyclothymic manifestations classifiable as such on the basis of the DMS criteria.
Subjects were therefore recruited whose mood disorders had been dominated by dysphoric manifestations for at least 4 years, classifiable as dysthymia (DMS IV) and a depressive, irritable, cyclothymic personality or temperament on the basis of DMS IV and AXIS II. A total of 20 patients were selected, 12 males and 8 females, matching up to the above-mentioned criteria, and with a mean age of 26±2 years. Six patients (males) also complained of diminished libido and episodes of impotence, while the 8 female patients complained of loss of libido and anorexia. Eight patients (4 males) reported an increased intake of alcoholic beverages, without clinical complications, in the previous 8 months (mean intake 142±15 g/day) and 6 patients (1 male) reported bulimic episodes resulting in a mean weight gain of 2.1±0.5 kg over the previous 6 months.
Each patient was recruited into the study after 3 repeated visits, at monthly intervals, for the purposes of ruling out other concomitant pathologies or disorders according to DMS IV and AXIS II involving definite abuse of psychotropic substances. The objective neurological examination, current laboratory tests (SMA plus), ECG. BP and chest X-rays were all within normal limits.
None of the patients had been treated with SSRI or tricyclic antidepressants during the previous year. In the course of the month preceding the treatment with acetyl L-carnitine all treatments consisting in administration of benzodiazepines during the daytime were discontinued and only the administration of Lorazepam (2.5 mg) at 9 p.m. was allowed for all patients.
Each patient was administered acetyl L-carnitine 1 g per os twice daily (at breakfast- and lunch-time) for two months.
During the clinical interviews, at entry into the study, on day 45 of administration of acetyl L-carnitine and on day 90 (one month after the end of the treatment), patients were administered the following standardized rating scales: Hamilton Depression Rating Scale (HDRS), Hamilton Anxiety Rating Scale (HARS), Global Functional (or Social Adaptation) Rating (GFR).
For the recording of alcohol intake, a self-administered scale was used to record the alcohol-free days as a percentage of the total and the number of daily alcohol intakes, considering the intake of 10 grams as a single intake, in the month preceding treatment, during the treatment months and in the month following acetyl L-carnitine treatment.

[1] = Day 45 of administration, 1 g per os twice daily
[2] = Day 90 (one month after the end of treatment)

CC(=O)O[C@H](CC(=O)[O-])C[N+](C)(C)C [acetyl L-carnitine]
Hamilton Depression Rating Scale (HDRS) (Day 45 of administration, 1 g per os twice daily, 20 patients): 9.1 ± 4.8 | Hamilton Anxiety Rating Scale (HARS) [1]: 12.8 ± 4.4 | Global Functional (or Social Adaptation) Rating (GFR) [1]: 75.3 ± 7.9 | Hamilton Depression Rating Scale (HDRS) (Day 90 (one month after the end of the two-month treatment)): 12.8 ± 5.4 | Hamilton Anxiety Rating Scale (HARS) [2]: 16.9 ± 5.0 | Global Functional (or Social Adaptation) Rating (GFR) [2]: 67.7 ± 6.8 | symptoms of impotence and diminished libido (all male patients, 15 days after the start of treatment): disappearance of symptoms of impotence and diminished libido | alcohol-free days (during the two months of treatment, on average, self-administered scale): 16±3 | changes in laboratory tests, BP and ECG as compared to pre-treatment conditions (end of treatment): no significant changes | laboratory tests performed at the end of treatment (end of two-month treatment, 1 g per os twice daily): normal values | alcohol-free days (in the month after treatment): 8±2 | expression of the depressive behavioural component (subjects suffering from dysthymic disorders, conclusion of the clinical trial): significantly reduces | mean number of alcohol intakes (10 grams = a single intake) (under treatment, as against 7.8±1.2): 6.1±2.1

Reference: US6335021B1, “Composition for controlling mood disorders in healthy individuals” (Sigma-Tau HealthScience S.p.A., priority 1997, dated 2002)
